We go through 2 molecules from paper PMC7473840, “Identification of a molecular locus for normalizing dysregulated GABA release from interneurons in the Fragile X brain” (Molecular Psychiatry, 2018).

pKd: −log10 of the molar value. Entries after “also recorded” stand apart in the source; their conditions may differ.

For data set [1] the following is noted: ref Invitrogen; read-out: Kd (Ca2+ indicator); cited from earlier work.
A further data set concerns Kv1.2. In words: K+ current by voltage ramp, CHO cells expressing Kv1.2-WT. The class given is cell-based. The note with it: 1 µM, n = 7. From the text:
Fig. 3 Direct interaction between FMRP and Kv1.2 in a phosphorylation-specific manner. a Illustration of an alpha subunit of Kv1.2 channel with extensive details of intracellular C-terminus. b K^+ current generated by a voltage ramp (−90 to 100 mV, top) from CHO cells expressing WT (Kv1.2-WT, middle) or truncated Kv1.2 (Kv1.2-Δ429-500, bottom) before and after infusion of N-terminus FMRP protein (n-FMRP, H00002332-P01, Novus Biologicals, 1:100 dilution). c The changes in amplitude of K^+ current by n-FMRP is summarized for Kv1.2-WT (n = 8) and Kv1.2-Δ429-500 (n = 8) constructs. d Co-IP of Kv1.2 and FMRP in the absence or presence of three peptides targeting the sequence (436–457) of C-terminus of Kv1.2 as highlighted in a phosphorylated (PhosKv436-457), non-phosphorylated (Kv436-457), and phosphorylated scrambled peptide. e Summary of effect of the three peptides. […] The changes in the amplitude and frequency of sIPSCs are summarized in the right panels for PhosKv436-457 (n = 6, f), non-phosphorylated Kv436-457 (n = 6, g), and scrambled (n = 5, h) peptides.
Fig. 5 DHA rescue and graphical overview of the function of FMRP at the BC–PN synapses. a, b Currents generated by a voltage ramp (−90 to 100 mV) from CHO cells transfected with recombinant Kv1.2 in the absence (black) or presence (red) of DHA (1 µM). These currents are fit with a Boltzmann function: f(V) = Imax/(1+e^(V1/2−V)/Vc)+C, in which “Imax” denotes the theoretical value of the maximal amplitude of Kv1.2 currents; “V1/2” indicates the depolarization voltage needed to produce the half-maximal amplitude of the currents; “Vc” is the slope factor describing the steepness of the Boltzmann curve. The parameters for the two groups (n = 7) are summarized in (b). c, d sIPSCs recorded from PNs in Fmr1-KO slices with (bottom) or without (top) DHA (10 µM). Changes in the amplitude and frequency of sIPSC (n = 8) are quantified in (d). e, f APs from PNs before (top) and after (bottom) DHA application (10 µM). […] In WT BCs, there are two populations of Kv1.2 channels being in either non-phosphorylated or phosphorylated state (with C-termini colored in black and turquoise respectively; +/−P to symbolize phosphate modification). The N-terminus of FMRP dimers directly interact with C-terminus of Kv1.2 only in a phosphorylated state. This interaction enhances the gating (Pathway 1), membrane targeting (Pathway 2), and/or axonal trafficking (Pathway 3) of Kv1.2 in the nerve terminal to control its excitability and Ca^2+ dynamics (blue) critical for tuning inhibitory neurotransmission and ensuring the final output from principal neurons (i.e., PNs). […]

The next data set concerns Fmr1-KO mice. In words: Three-chambered sociability test, Fmr1-KO. Particulars: 200 mg/kg i.p., 30 min before test; 7–9-week-old male; n = 7. The class given is in vivo, mouse. An excerpt: (§1) The three-chambered sociability test was composed of three sessions: habituation (trail 1), sociability (trial 2), and social novelty (trial 3), which evaluated sociable behavior and recognition of social novelty. For habituation, 7–9-week-old testing male mouse was placed in the middle chamber and allowed to freely explore all three chambers. In the sociability session, a stranger mouse (the same strain and gender but never encountered before) was put underneath a grid cup and placed in one of the two side-chambers, while another identical empty cup was placed on the other side. In the social novelty session, another stranger mouse was put inside the previously empty cup. Each session lasted 9 min. Physical contacts around the cups with the nose, head, and forelimbs, were defined as sniffing behavior and used as an index for sociable behavior [47]. A camera, connected to a computer, was used to track mice activity using the ANY-maze software (ANY-maze, Stoelting Co., IL, USA). Testing was conducted 30 min after saline or DHA (200 mg/kg, Sigma) injection (intraperitoneal, i.p.) to minimize distress from drug administration and ensure normal physical activity that could be affected by DHA for a short period.

The subject of data set [2] is PNs, Fmr1-KO cerebellar slices. The experiment in a line: Spontaneous firing of PNs, cell-attached, Fmr1-KO. Type of data set: cell-based, mouse. Particulars: 10 µM, Fmr1-KO, cell-attached; n = 7.
In a further data set the test system is WT mice. The experiment in a line: Three-chambered sociability test, WT. Type of data set: in vivo, mouse. The note with it: 200 mg/kg.
Description: as §1

For data set [3] the following is noted: ref [45]; cited from earlier work.
The next data set concerns BC–PN synapse, Fmr1-KO. The experiment in a line: sIPSCs from PNs, Fmr1-KO synapses. The note with it: 10 µM applied to Fmr1-KO cerebellar slices; n = 8. The class given is cell-based, mouse.
In the next data set the test system is adult Fmr1-KO mice. The experiment in a line: Acoustic startle reflex (ASR). Type of data set: in vivo, mouse. The note with it: chow enriched with 0.5% w/w DHA for 1 week; n = 11 versus n = 10 control; double-blind. The method, then:
As previously described, acoustic startle response was measured from 7–9-week-old mice, which were submitted to no pulse or a pulse stimulation (120 dB, 40 ms) alone or in combination of a prepulse (either 72, 78, or 82 dB, 20 ms). Maximal startle response was recorded and compared between groups for all types of trials. The sound attenuated chambers and analysis software were obtained from San Diego Instruments (San Diego, USA). One week prior to testing, mice were fed with normal chow or calorically equivalent chow enriched with 0.5% DHA (Sigma) prepared by Research Diets (New Brunswick, USA). Diets were prepared with identical dyes to be indistinguishable by eye. Mice were tested for acoustic startle response only once between 4 p.m. and 7 p.m.

By pKd is commonly meant −log10 of the Kd, conventionally taken in molar units. Take Fluo-4: in data set [1], the pKd is 6.46.
As for `CC/C=C\C/C=C\C/C=C\C/C=C\C/C=C\C/C=C\CCC(=O)O` [DHA, docosahexaenoic acid], in the data set on Kv1.2 (Boltzmann fit), the “half-activation voltage (V1/2)” value is given as “decreased the half-activation voltage (V1/2)”, the “maximal amplitude of Kv1.2 currents” value is “the maximal amplitude was unaffected” and the “slope factor (Vc)” value is reported as “increased the slope factor (Vc)”. The “shift in Kv1.2 currents evoked by voltage ramp” value in the data set with Kv1.2 (ramp −90 to 100 mV) is recorded as “a significant leftward shift in the Kv1.2 currents”. In addition, in the data set with Fmr1-KO mice, the social novelty recognition result is listed as “improved the deficient social novelty recognition”. Besides, in data set [2], the “spike (AP) frequency of PNs” value is given as “increases the frequency of APs in the Fmr1-KO synapses; also recorded: enhanced the spike frequency of PNs, restoring the firing rate of Fmr1-KOs to the same level as the WTs”. The “distance travelled during the trials” value with WT mice (WT, repeated one-way ANOVA, p>0.05) is on record as “No significant differences”. Further, the “social behavior of WT mice” value in the data set with WT mice (male C57BL/6J, n = 8, repeated two-way ANOVA) is “did not affect social performance of WT mice; also recorded: did not alter the social behaviors of WT animals”. Moreover, the “sniffing time, stranger versus empty cup” value with WT mice (sociability session, WT, n = 8) is reported as “spent more time sniffing the stranger than the empty cup”. The “sniffing time, novel stranger versus familiar mouse” value with WT mice (social novelty session, WT, n = 8) is recorded as “spent more time sniffing the novel stranger than the familiar one”. For the same molecule, the “blood–brain barrier crossing” value in data set [3] is listed as “can cross blood–brain barrier”. Besides, the “amplitude and frequency of sIPSCs” value with BC–PN synapse, Fmr1-KO was “reduced amplitude and frequency of sIPSCs”. The “acoustic startle reflex from 120-dB sound stimulation” value in the data set on adult Fmr1-KO mice is given as “significantly attenuated ASR”.
